What was measured:
Assay in all cases: relative viability (nuclei count vs DMSO), 5 days (fraction); higher = more cells survive
TPCA-1 + Vorinostat = compound: C1=CC(=CC=C1C2=CC(=C(S2)NC(=O)N)C(=O)N)F [TPCA-1] + O=C(CCCCCCC(=O)Nc1ccccc1)NO [Vorinostat] (partner 1 µM)
In short: (§1)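 Lung cancer cell lines in 1536-well plates were dosed by pin tool the day after seeding, either with one drug alone or with a fixed anchor-drug dose plus five library-drug doses (not always all listed) in √10 steps. After 5 days, cells were fixed and their nuclei stained in one step (final 0.05% Triton X-100, 1% formaldehyde, 1 ug/ml Hoechst), then counted on 4× images. Relative viability is the nuclei count in treated wells divided by that in vehicle wells. Values are medians of duplicate plates.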

[1] = compound: C1/C(=C\C2=CC=CS2)/C(=O)/C(=C/C3=CC=CS3)/C1 + CS(=O)(=O)CCNCc1ccc(-c2ccc3ncnc(Nc4ccc(OCc5cccc(F)c5)c(Cl)c4)c3c2)o1 [Lapatinib] (partner 2 µM)
In short: as §1

[2] = compound: C1/C(=C\C2=CC=CS2)/C(=O)/C(=C/C3=CC=CS3)/C1 + CC1(C)CCC(c2ccc(Cl)cc2)=C(CN2CCN(c3ccc(C(=O)NS(=O)(=O)c4ccc(N[C@H](CCN5CCOCC5)CSc5ccccc5)c(S(=O)(=O)C(F)(F)F)c4)cc3)CC2)C1 [Navitoclax] (partner 0.5 µM)
In short: as §1

Lestaurtinib + Dasatinib = compound: C[C@]12O[C@H](C[C@]1(O)CO)n1c3ccccc3c3c4c(c5c6ccccc6n2c5c31)CNC4=O [Lestaurtinib] + Cc1nc(Nc2ncc(C(=O)Nc3c(C)cccc3Cl)s2)cc(N2CCN(CCO)CC2)n1 [Dasatinib] (partner 0.075 µM)
In short: as §1

Cell Line	relative viability (TPCA-1 + Vorinostat; first compound 0.04 µM)	relative viability (TPCA-1 + Vorinostat; first compound 0.1265 µM)	relative viability (TPCA-1 + Vorinostat; first compound 0.4 µM)	relative viability (TPCA-1 + Vorinostat; first compound 1.265 µM)	relative viability (TPCA-1 + Vorinostat; first compound 4 µM)	relative viability ([1]; first compound 0.2 µM)	relative viability ([1]; first compound 0.6325 µM)	relative viability ([1]; first compound 2 µM)	relative viability ([1]; first compound 6.325 µM)	relative viability ([1]; first compound 20 µM)	relative viability ([2]; first compound 0.2 µM)	relative viability ([2]; first compound 0.6325 µM)	relative viability ([2]; first compound 2 µM)	relative viability ([2]; first compound 6.325 µM)	relative viability ([2]; first compound 20 µM)	relative viability (Lestaurtinib + Dasatinib; first compound 0.005 µM)	relative viability (Lestaurtinib + Dasatinib; first compound 0.01581 µM)	relative viability (Lestaurtinib + Dasatinib; first compound 0.05 µM)	relative viability (Lestaurtinib + Dasatinib; first compound 0.1581 µM)	relative viability (Lestaurtinib + Dasatinib; first compound 0.5 µM)
HCC-827	0.987	0.764	0.89	0.841	0.671	0.21	0.177	0.205	0.191	0.204	1.1	0.966	1.01	0.959	1.02	0.428	0.323	0.256	0.318	0.246
HOP-62	0.771	0.52	0.688	0.381	0.176	0.902	0.589	0.9	0.932	0.983	0.985	1.23	0.8	0.952	1.06	0.66	0.721	0.504	0.499	0.241
LC-2-ad	0.742	0.69	0.705	0.716	0.155	0.891	1.03	0.939	0.747	0.973	0.451	0.451	0.399	0.406	0.49	0.618	0.831	0.258	0.281	0.256
LCLC-97TM1	0.844	0.488	0.905	0.365	0.0988	1.14	0.806	1.15	0.955	1.18	0.345	0.337	0.367	0.297	0.261	0.841	0.853	0.629	0.753	0.191
LK-2	0.343	0.161	0.287	0.267	0.237	0.897	0.887	1.2	1.05	0.988	0.824	0.956	0.702	0.862	0.89	0.296	0.255	0.241	0.275	0.158
LOU-NH91	0.937	0.925	0.908	0.851	0.674	0.744	0.821	0.782	0.607	0.802	0.726	0.744	0.724	0.581	0.723	0.581	0.575	0.415	0.397	0.372
LU99A	0.546	0.463	0.544	0.457	0.316	0.914	0.958	1.23	0.785	0.95	0.734	0.796	0.814	0.788	0.793	0.518	0.528	0.387	0.298	0.215
LXF-289	0.786	0.819	0.762	0.764	0.42	0.926	0.915	0.886	0.792	0.91	0.939	0.996	0.929	0.862	0.908	0.21	0.275	0.146	0.154	0.0882
NCI-H23	0.392	0.579	0.546	0.526	0.161	0.918	1.4	1.44	0.861	1.12	0.902	0.804	0.944	0.602	0.729	0.856	0.911	0.739	0.847	0.483
NCI-H322M	0.976	0.89	0.958	0.864	0.431	0.619	0.648	0.657	0.568	0.582	1.32	1.2	1.4	0.587	0.976	0.233	0.279	0.277	0.293	0.339
NCI-H460	0.878	0.686	–	0.682	0.563	1.07	1.2	0.929	–	0.893	1.26	1.34	1.12	–	1.14	0.505	0.583	0.505	0.388	0.247
NCI-H520	0.72	0.636	0.782	0.605	0.497	0.912	0.896	0.786	0.817	0.763	0.98	1.06	1.15	0.856	1	0.209	0.203	0.164	0.169	0.159
NCI-H596	0.64	0.613	0.696	0.668	0.616	1.13	1.03	1.1	1	1.02	0.987	0.975	0.919	0.956	0.933	0.669	0.6	0.678	0.694	0.564
NCI-H647	0.48	0.599	0.518	0.312	0.218	1.13	1.26	1.28	0.763	1	1.15	1.15	1.1	1.01	1.17	0.278	0.147	0.0914	0.0755	0.0624
NCI-H727	1.21	0.947	1.26	1.25	1.31	0.735	0.877	1.02	0.701	0.752	0.528	0.426	0.503	0.302	0.391	0.402	0.285	0.459	0.542	0.231
NCI-H838	0.752	0.64	0.676	0.648	0.363	1.01	0.889	0.994	0.926	0.866	1.23	1.17	1.14	0.86	1.05	0.281	0.296	0.264	0.286	0.216

Cell Line	relative viability (TPCA-1 + Vorinostat; first compound 0.04 µM)	relative viability (TPCA-1 + Vorinostat; first compound 0.1265 µM)	relative viability (TPCA-1 + Vorinostat; first compound 0.4 µM)	relative viability (TPCA-1 + Vorinostat; first compound 1.265 µM)	relative viability (TPCA-1 + Vorinostat; first compound 4 µM)	relative viability ([1]; first compound 0.2 µM)	relative viability ([1]; first compound 0.6325 µM)	relative viability ([1]; first compound 2 µM)	relative viability ([1]; first compound 6.325 µM)	relative viability ([1]; first compound 20 µM)	relative viability ([2]; first compound 0.2 µM)	relative viability ([2]; first compound 0.6325 µM)	relative viability ([2]; first compound 2 µM)	relative viability ([2]; first compound 6.325 µM)	relative viability ([2]; first compound 20 µM)	relative viability (Lestaurtinib + Dasatinib; first compound 0.005 µM)	relative viability (Lestaurtinib + Dasatinib; first compound 0.01581 µM)	relative viability (Lestaurtinib + Dasatinib; first compound 0.05 µM)	relative viability (Lestaurtinib + Dasatinib; first compound 0.1581 µM)	relative viability (Lestaurtinib + Dasatinib; first compound 0.5 µM)
NCI-H1355	0.735	0.603	0.611	0.582	0.553	0.964	0.951	1.04	0.908	0.911	0.958	0.812	0.904	0.853	0.933	0.639	0.777	0.58	0.495	0.259
NCI-H1395	0.637	0.645	0.856	0.604	0.55	1.04	1.13	1.11	0.886	1.15	1.28	1.65	1.23	1.04	1.15	0.423	0.402	0.398	0.373	0.363
NCI-H1437	0.921	0.867	0.897	0.819	0.784	0.751	0.788	0.791	0.748	0.692	1.15	1.09	1.07	1.03	0.992	0.442	0.475	0.331	0.382	0.265
NCI-H1650	0.717	0.575	0.584	0.675	0.498	0.654	0.735	0.961	0.748	0.803	1.11	1.15	1.21	1.1	1.24	0.263	0.345	0.391	0.387	0.144
NCI-H1651	0.571	0.429	0.629	0.496	0.239	0.81	0.93	0.793	–	0.769	1.25	1.01	1.07	–	1.11	0.395	0.557	0.393	0.443	0.248
NCI-H1666	1.08	0.966	1.02	0.988	1.1	0.633	0.59	0.565	0.561	0.614	1.22	0.818	1.05	0.622	0.983	1.13	0.922	0.924	0.747	0.649
NCI-H1734	0.957	0.737	0.88	0.839	0.279	1.02	1.05	1.17	0.906	1.09	0.837	0.908	0.914	0.812	0.866	0.48	0.518	0.42	0.263	0.143
NCI-H1755	0.717	0.84	0.813	0.667	0.554	1.07	1.03	1.09	0.882	0.993	1.07	1.03	0.963	0.849	0.944	0.439	0.424	0.293	0.288	0.208
NCI-H1793	0.619	0.61	0.967	0.674	0.236	0.913	0.611	0.86	0.519	0.674	0.376	0.512	0.503	0.402	0.519	0.431	0.392	0.316	0.361	0.271
NCI-H1915	0.541	0.5	0.537	0.392	0.386	0.984	0.996	0.964	0.937	1.03	0.788	0.758	0.818	0.754	0.818	0.37	0.272	0.243	0.236	0.191
NCI-H1944	0.648	0.709	0.675	0.512	0.521	0.735	0.695	0.864	0.782	0.748	1.14	0.966	1.08	0.899	0.992	0.207	0.23	0.176	0.137	0.147
NCI-H1975	0.724	0.699	0.712	0.632	0.444	1.01	0.789	0.966	0.613	0.823	1.09	1.19	1.04	0.912	1.08	0.479	0.396	0.373	0.328	0.257
NCI-H1993	0.877	0.74	0.921	0.694	0.533	0.815	0.783	0.731	0.685	0.781	1.04	0.877	0.971	0.693	0.818	0.565	0.32	0.504	0.495	0.468
NCI-H2009	0.746	0.785	0.693	0.757	0.675	0.882	0.872	1.02	0.868	0.917	1.19	1.21	1.06	1.15	1.16	0.257	0.227	0.2	0.211	0.118
NCI-H2023	0.634	0.608	0.772	0.506	0.241	0.877	0.87	0.889	0.734	0.67	1.08	0.991	1.03	0.971	0.94	0.674	0.586	0.422	0.473	0.159
NCI-H2085	–	0.803	0.803	0.781	0.514	0.876	0.768	0.876	0.692	0.701	1.13	1.16	1.03	1.15	1.09	0.236	0.265	0.3	0.335	0.496

From the supplement of paper PMC10307832
